The target of assay [1] is Ba/F3 EGFR-D770-N771ins_SVD (Homo sapiens, UniProt P00533, DUP768-770, cells depend on it). As to the kind of experiment: Proliferation of Ba/F3 EGFR mutant cell line (CellTiter-Glo). The conditions noted are these: 72 h to 144 h, read-out: Ba/F3 EGFR-D770-N771ins_SVD IC50. It is filed as cell-based, mouse. The method, then:
Determination of the Inhibitory Effect of the Compound of the Present Invention on the Proliferation of Ba/F3 EGFR Mutant Cell Line and A431 Cell Line
(§1) Experimental objective: The objective of this test example is to determine the inhibitory effect of the compound on the proliferation of Ba/F3 EGFR mutant cell line and A431 cell line
(§2) Experimental instruments: Microplate reader (BioTek Synergy H1), pipette (Eppendorf & Rainin).
Ba/F3 EGFR mutant cells were cultured, and harvested after reaching a suitable density. The cells were adjusted to an appropriate cell concentration with the complete medium. The cell suspension were spread on a 96-well plate (90 μL per well), and the plate was placed in a 37° C., 5% CO2 incubator overnight to let the cells adhere to the wall. Solutions of the compound at different concentrations were formulated with DMSO and culture medium. Solvent control was set. […] CellTiter-Glo solution was added and mixed well by shaking, and the plate was incubated in the dark for 10 minutes. The values were measured by BioTek Synergy H1 microplate reader.
(§3) Experimental Data Processing Method:
(§4) The inhibition rate was calculated using the […] signal value. The concentration and inhibition rate were fitted to a nonlinear regression curve by Graphpad Prism software to obtain the IC50 value.

The target of assay [2] is EGFR D770_N771insNPG (Homo sapiens, UniProt P00533, INS770NPG). As to the kind of experiment: TR-FRET inhibition of kinase activity of EGFR exon 20 insertion mutation. It is filed as biochemical.
Text: Determination of the Inhibitory Effect of the Compound of the Present Invention on the Kinase Activity of EGFR Exon 20 Insertion Mutation
Experimental objective: The objective of this test example is to determine the inhibitory effect of the compound on the kinase activity of EGFR exon 20 insertion mutation.
Experimental process: The experiment applied the TR-FRET (time-resolved fluorescence resonance energy transfer) method to study the inhibitory effect of the compound on the kinase activity of EGFR exon 20 insertion mutation. The experiment was carried out in a 384-well plate. Experimental buffer (50 mM HEPES, 1 mM EGTA, 10 mM MgCl2, 2 mM DTT, 0.01% Tween-20) was formulated. The compound was diluted in gradient to different concentrations with the experimental buffer. 2.5 μL of the solution was added to each well of the 384-well plate. 2.5 μL of diluted EGFR kinase solution (0.001-0.5 nM) was added, and the plate was incubated at room temperature for 10 minutes. 5 μL of ULight-poly GT/ATP mixed solution was added, and the plate was incubated at room temperature for 30 to 60 minutes. 5 μL of EDTA stop solution and 5 μL of Eu-labeled antibody detection solution were added, and the plate was incubated at room temperature for 1 hour.
as §3
The concentration and inhibition rate were fitted to a nonlinear regression curve by Graphpad Prism software to obtain the IC50 value.

Assay [3] deals with A431 cell line. As to the kind of experiment: Proliferation of A431 cell line (CellTiter-Glo). It is filed as cell-based. The conditions noted are these: Homo sapiens, A-431, 72 h. Here is the method: Test Example 3. Determination of the Inhibitory Effect of the Compound of the Present Invention on the Proliferation of Ba/F3 EGFR Mutant Cell Line and A431 Cell Line
as §1, §2
A431 cells were cultured, and harvested after reaching a suitable density. The cells were adjusted to an appropriate cell concentration with the complete medium. The cell suspension were spread on a 96-well plate (90 μL per well), and the plate was placed in a 37° C., 5% CO2 incubator overnight to let the cells adhere to the wall. Solutions of the compound at different concentrations were formulated with DMSO and culture medium. Solvent control was set. The solution of the compound was added to the 96-well plate ([…]), and the plate was incubated in the 37° C., 5% CO2 incubator for 72 h. CellTiter-Glo solution was added and mixed well by shaking, and the plate was incubated in the dark for 10 minutes. The values were measured by BioTek Synergy H1 microplate reader.
as §3, §4
On the technique in general: Cellular ATP, detected with luciferase, serves as a proxy for viable cell number.

Drawing on patent publication US20220340547A1, “INDOLE DERIVATIVE-CONTAINING INHIBITOR, PREPARATION METHOD THEREFOR AND APPLICATION THEREOF” (Shanghi Hansoh Biosoh Biomedical Co., Ltd., priority 2019, published 2022), this text covers GI50 and IC50 for 16 compounds.

Ba/F3 EGFR-D770-N771ins_SVD, sequence (P00533 with tags, fused parts or gaps DUP768-770): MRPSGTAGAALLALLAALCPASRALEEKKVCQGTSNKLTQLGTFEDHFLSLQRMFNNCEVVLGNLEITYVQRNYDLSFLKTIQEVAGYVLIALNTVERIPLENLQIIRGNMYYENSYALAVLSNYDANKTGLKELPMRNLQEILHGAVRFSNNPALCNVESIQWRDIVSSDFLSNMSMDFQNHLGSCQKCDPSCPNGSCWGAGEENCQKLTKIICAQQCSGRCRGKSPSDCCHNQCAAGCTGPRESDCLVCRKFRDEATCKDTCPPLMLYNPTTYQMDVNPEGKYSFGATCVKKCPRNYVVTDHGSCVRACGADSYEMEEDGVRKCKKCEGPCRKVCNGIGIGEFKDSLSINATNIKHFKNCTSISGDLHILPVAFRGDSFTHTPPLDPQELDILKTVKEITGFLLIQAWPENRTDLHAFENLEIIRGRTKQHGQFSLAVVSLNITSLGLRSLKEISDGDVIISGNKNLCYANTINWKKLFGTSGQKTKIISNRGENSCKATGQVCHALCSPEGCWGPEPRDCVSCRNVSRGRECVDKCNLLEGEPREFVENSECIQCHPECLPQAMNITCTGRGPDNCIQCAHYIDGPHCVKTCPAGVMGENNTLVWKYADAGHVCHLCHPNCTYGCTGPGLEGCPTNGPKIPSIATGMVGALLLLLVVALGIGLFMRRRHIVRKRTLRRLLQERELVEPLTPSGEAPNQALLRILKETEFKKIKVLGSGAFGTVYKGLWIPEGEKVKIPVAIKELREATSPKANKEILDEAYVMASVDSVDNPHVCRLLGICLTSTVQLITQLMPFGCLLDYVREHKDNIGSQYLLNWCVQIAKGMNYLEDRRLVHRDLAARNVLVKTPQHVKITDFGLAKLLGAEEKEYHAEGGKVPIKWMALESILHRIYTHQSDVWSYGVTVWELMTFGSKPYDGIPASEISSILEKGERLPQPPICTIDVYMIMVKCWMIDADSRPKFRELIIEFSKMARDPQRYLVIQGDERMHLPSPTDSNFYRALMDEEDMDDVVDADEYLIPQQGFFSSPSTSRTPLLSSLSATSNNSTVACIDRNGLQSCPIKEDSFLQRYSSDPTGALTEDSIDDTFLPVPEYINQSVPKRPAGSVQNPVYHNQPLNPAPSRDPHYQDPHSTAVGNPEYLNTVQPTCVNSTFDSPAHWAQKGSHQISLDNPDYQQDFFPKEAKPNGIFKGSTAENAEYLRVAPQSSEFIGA
EGFR D770_N771insNPG, sequence (P00533 with tags, fused parts or gaps INS770NPG limits assumed): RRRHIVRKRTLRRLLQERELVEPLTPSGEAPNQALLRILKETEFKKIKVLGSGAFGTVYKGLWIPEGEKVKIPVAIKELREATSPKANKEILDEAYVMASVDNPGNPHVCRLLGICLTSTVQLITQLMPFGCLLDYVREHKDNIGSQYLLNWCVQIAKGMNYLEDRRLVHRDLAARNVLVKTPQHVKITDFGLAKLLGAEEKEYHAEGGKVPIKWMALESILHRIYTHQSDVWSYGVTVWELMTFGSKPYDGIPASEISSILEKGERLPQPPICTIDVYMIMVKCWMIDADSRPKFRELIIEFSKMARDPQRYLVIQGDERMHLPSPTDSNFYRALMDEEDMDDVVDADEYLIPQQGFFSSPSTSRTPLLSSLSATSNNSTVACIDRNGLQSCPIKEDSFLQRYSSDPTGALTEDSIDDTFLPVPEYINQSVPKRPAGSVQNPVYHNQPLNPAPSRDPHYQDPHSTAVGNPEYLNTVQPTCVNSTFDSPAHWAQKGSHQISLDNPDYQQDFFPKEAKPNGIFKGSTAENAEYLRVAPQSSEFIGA

For the compound `C=CC(=O)Nc1cc(Nc2ncc(-c3ncco3)c(-c3cn(C4CC4)c4ccccc34)n2)c(OC)cc1N1C[C@@H]2CCN(C)[C@@H]2C1` (relative stereo) [Example 40, Cis N-(5-((4-(1-Cyclopropyl-1H-indol-3-yl)-5-(oxazol-2-yl)pyrimidin-2-yl)amino)-4-methoxy-2-(1-methylhexahydropyrrolo[3,4-b]pyrrol-5(1H)-yl)phenyl)acrylamide], the GI50 in assay [1] came to 34.6 nM. The IC50 in assay [2] turned out to be 0.55 nM; in assay [3], 133 nM.
Take `C=CC(=O)Nc1cc(Nc2nccc(-c3cn(C)c4ccccc34)n2)c(OC)cc1N(C)CCN(C)C` [AZD9291, osimertinib, reference compound]: in assay [3], the IC50 came out at […].
`CC#CC(=O)Nc1cc(Nc2ncc(C(=O)OC(C)C)c(-c3cn(C)c4ccccc34)n2)c(OC)cc1N(C)CC1CCCN1C` (stereo not drawn) [Example 1, Isopropyl 2-((5-(but-2-ynamido)-2-methoxy-4-(methyl((1-methylpyrrolidin-2-yl)methyl)amino)phenyl)amino)-4-(1-methyl-1H-indol-3-yl)pyrimidine-5-carboxylate]: the GI50 in assay [1] came to 76 nM. Also, the IC50 in assay [3] turned out to be 537 nM.
For `C=CC(=O)Nc1cc(Nc2ncc(C(=O)OC(C)C)c(-c3cn(C)c4ccccc34)n2)c(OC)cc1N1C[C@H]2CN(C)C[C@H]2C1` [Example 24, Isopropyl 2-((5-acrylamido-2-methoxy-4-(5-methylhexahydropyrrolo[3,4-c]pyrrol-2(1H)-yl)phenyl)amino)-4-(1-methyl-1H-indol-3-yl)pyrimidine-5-carboxylate], in that order: 15 nM and 124 nM.
In the case of `C=CC(=O)Nc1cc(Nc2ncc(C#N)c(-c3cn(C4CC4)c4ccccc34)n2)c(OC)cc1N1C[C@H]2CN(C)C[C@H]2C1` [Example 35, N-(5-((5-Cyano-4-(1-cyclopropyl-1H-indol-3-yl)pyrimidin-2-yl)amino)-4-methoxy-2-((3aR,6aS)-5-methylhexahydropyrrolo[3,4-c]pyrrol-2(1H)-yl)phenyl)acrylamide], in assay [1], the GI50 amounted to 24.8 nM. For the same compound, the IC50 in assay [2] amounted to 0.43 nM; in assay [3] it was 162 nM.
As for `C=CC(=O)Nc1cc(Nc2ncc(-c3ncco3)c(-c3cn(C4CC4)c4ccccc34)n2)c(OC)cc1N1C[C@H]2CN(C)C[C@H]2C1` [Example 36, N-(5-((4-(1-Cyclopropyl-1H-indol-3-yl)-5-(oxazol-2-yl)pyrimidin-2-yl)amino)-4-methoxy-2-((3aR,6aS)-5-methylhexahydropyrrolo[3,4-c]pyrrol-2(1H)-yl)phenyl)acrylamide], the GI50 in assay [1] came out at 27.1 nM. The IC50 in assay [3] was 439 nM.
`C=CC(=O)Nc1cc(Nc2ncc(-c3cnn(C)c3)c(-c3cn(C4CC4)c4ccccc34)n2)c(OC)cc1N1C[C@H]2CN(C)C[C@H]2C1` [Example 43, N-(5-((4-(1-Cyclopropyl-1H-indol-3-yl)-5-(1-methyl-1H-pyrazol-4-yl)pyrimidin-2-yl)amino)-4-methoxy-2-((3aR,6aS)-5-methylhexahydropyrrolo[3,4-c]pyrrol-2(1H)-yl)phenyl)acrylamide]: the GI50 in assay [1] came out at 21 nM. For the same compound, the IC50 in assay [2] worked out at 0.29 nM.
As for `C=CC(=O)Nc1cc(Nc2ncc(-c3ccccc3)c(-c3cn(C4CC4)c4ccccc34)n2)c(OC)cc1N1C[C@H]2CN(C)C[C@H]2C1` [Example 47, N-(5-((4-(1-Cyclopropyl-1H-indol-3-yl)-5-phenylpyrimidin-2-yl)amino)-4-methoxy-2-((3aR,6aS)-5-methylhexahydropyrrolo[3,4-c]pyrrol-2(1H)-yl)phenyl)acrylamide], the GI50 in assay [1] turned out to be 33.1 nM. Further, the half-inhibitory concentration (IC50) in assay [3] is 51.7 nM.
As to `C=CC(=O)Nc1cc(Nc2ncc(-c3ncco3)c(-c3cn(C4CC4)c4ccccc34)n2)c(OC)cc1N1CC[C@H](N(C)C)C1` [Example 56, (S)—N-(5-((4-(1-Cyclopropyl-1H-indol-3-yl)-5-(oxazol-2-yl)pyrimidin-2-yl)amino)-2-(3-(dimethylamino)pyrrolidin-1-yl)-4-methoxyphenyl)acrylamide], the GI50 in assay [1] was found to be 45.3 nM. Also, in assay [3], the IC50 was found to be 144 nM.
On to `C=CC(=O)Nc1cc(Nc2ncc(-c3cnn(C)c3)c(-c3cn(C4CC4)c4ccccc34)n2)c(OC)cc1N1C[C@@H]2CCN(C)[C@@H]2C1` [Example 65, N-(5-((4-(1-Cyclopropyl-1H-indol-3-yl)-5-(1-methyl-1H-pyrazol-4-yl)pyrimidin-2-yl)amino)-4-methoxy-2-((3aS,6aS)-1-methylhexahydropyrrolo[3,4-b]pyrrol-5(1H)-yl)phenyl)acrylamide], for which, in assay [1], the GI50 is 15.1 nM. The IC50 in assay [2] was 0.29 nM.
Consider `C=CC(=O)Nc1cc(Nc2ncc(-c3cnn(C)c3)c(-c3cn(C4CC4)c4ccccc34)n2)c(OC)cc1N1C[C@H]2CCN(C)[C@H]2C1` [Example 68], for which, in assay [1], the GI50 was 15.4 nM. The same compound showed an IC50 in assay [2] of 0.17 nM.
For the compound `C=CC(=O)Nc1cc(Nc2ncc(-c3ccn(C)n3)c(-c3cn(C4CC4)c4ccccc34)n2)c(OC)cc1N1C[C@H]2CN(C)C[C@H]2C1` [Example 71, N-(5-((4-(1-Cyclopropyl-1H-indol-3-yl)-5-(1-methyl-1H-pyrazol-3-yl)pyrimidin-2-yl)amino)-4-methoxy-2-((3aR,6aS)-5-methylhexahydropyrrolo[3,4-c]pyrrol-2(1H)-yl)phenyl)acrylamide], in assay [1], the GI50 was 54.9 nM. The half-maximal inhibitory concentration (IC50) in assay [3] stood at 238 nM.
For `C=CC(=O)Nc1cc(Nc2ncc(-c3cnn(C)c3)c(-c3cn(C4CC4)c4ccccc34)n2)c(OC)cc1N(C)CCN(C)C` [Example 85, N-(5-((4-(1-Cyclopropyl-1H-indol-3-yl)-5-(1-methyl-1H-pyrazol-4-yl)pyrimidin-2-yl)amino)-2-((2-(dimethylamino)ethyl)(methyl)amino)-4-methoxyphenyl)acrylamide], in assay [1], the GI50 amounted to 17.4 nM. Besides, inhibition in assay [2] was half-maximal at 0.27 nM (IC50).
For the compound `C=CC(=O)Nc1cc(Nc2ncc(C#N)c(-c3cn(C4CC4)c4cc(OC)ccc34)n2)c(OC)cc1N(C)CCN(C)C` [Example 112, N-(5-((5-Cyano-4-(1-cyclopropyl-6-methoxy-1H-indol-3-yl)pyrimidin-2-yl)amino)-2-((2-(dimethylamino)ethyl)(methyl)amino)-4-methoxyphenyl)acrylamide], the GI50 in assay [1] is 26.7 nM. The same compound returned an IC50 in assay [2] of 0.17 nM.
The corresponding values for `C=CC(=O)Nc1cc(Nc2ncc(C#N)c(-c3cn(C4CC4)c4cc(F)ccc34)n2)c(OC)cc1N(C)CCN(C)C` [Example 114, N-(5-((5-Cyano-4-(1-cyclopropyl-6-fluoro-1H-indol-3-yl)pyrimidin-2-yl)amino)-2-((2-(dimethylamino)ethyl)(methyl)amino)-4-methoxyphenyl)acrylamide] are 42.5 nM and 0.61 nM.
Regarding `C=CC(=O)Nc1cc(Nc2ncc(C#N)c(-c3cn(C4CC4)c4c(OC)cccc34)n2)c(OC)cc1N(C)CCN(C)C` [Example 119, N-(5-((5-Cyano-4-(1-cyclopropyl-7-methoxy-1H-indol-3-yl)pyrimidin-2-yl)amino)-2-((2-(dimethylamino)ethyl)(methyl)amino)-4-methoxyphenyl)acrylamide], in assay [1], the GI50 came to 45.4 nM. The compound further registered an IC50 in assay [2] of 0.49 nM.

What is called IC50 is the concentration that gives 50% inhibition.
